The text below walks through data of publication PMC7144106, “The Evolution of Pleconaril: Modified O-Alkyl Linker Analogs Have Biological Activity towards Coxsackievirus B3 Nancy” (Molecules, 2020).

What all share (type): cell-based
The test system of series [1] is coxsackievirus B3 strain Nancy. Put plainly: Viral yield reduction assay against CVB3 in Vero cells. The settings on record: for IC50: Vero cells, viral yield reduction, MOI 0.01, 24 h, read-out: IC50 towards CVB3.
A short description of a further series: in vitro. As to conditions: for CC50 at 24 h: African green monkey; for CC50 at 72 h: dog. The protocol: The microtetrazolium test (MTT) was used to study the cytotoxicity of the compounds [24]. The experiment was repeated three times. Vero cells were seeded in 96-well plates in Eagles minimal essential medium (MEM) supplemented with 10% FBS. After 24 h, the media was removed, and the wells were washed with saline. Compounds were dissolved in DMSO, and a series of three-fold dilutions of each compound and pleconaril (1000-4 µg/mL) in MEM without FBS were prepared and added to the cells in quadriplicates (200 µL per well). The maximal concentration of DMSO was 0.5% MEM with 0.5% DMSO and was added to cell control wells. Cells were incubated for 24 h at 37 °C in 5% CO2 in the presence of the dissolved compounds. The cells were then washed with saline, and a solution of 3-(4,5-dimethylthiazolyl-2) 2,5-diphenyltetrazolium bromide (ICN Biochemicals Inc., Aurora, OH, USA) (0.5 µg/mL) in MEM was added to the wells (100 µL per well). After 2 h of incubation at 37 °C in 5% CO2, the supernatant from wells was discarded, and the formazan residue was dissolved in DMSO (100 µL per well). The optical density of cells was then measured on a Victor 21,440 multifunctional reader (Perkin Elmer, Turku, Finland) at a wavelength of 535 nm and plotted against the concentration of the compounds to generate the dose–response curve. The 50% cytotoxic dose (CC50) of each compound (i.e., the compound concentration that causes the death of 50% of cells in a culture, or decreases the optical density twice as compared to the control wells) was calculated using four-parameter logistic nonlinear regression model. For some compounds (35a and 35b) cytotoxicity towards MDCK cell line was determined using the procedure above, but the cells were exposed to compounds for 72 h.

For series [2], the system named is influenza virus A/Puerto Rico/8/34 (H1N1). Put plainly: Antiviral activity against IAV, hemagglutination test in MDCK cells. As to conditions: for IC50: MDCK cells, hemagglutination test, 72 h, read-out: IC50 Towards IAV.

Like-named read-outs stand apart in the source and are kept apart here.

Broadly, the IC50 is the concentration at which inhibition is half-maximal. In general, CC50 refers to the concentration that lowers cell viability or growth by half. `CCOC(=O)c1cc(CCCSc2ccc(-c3noc(C(F)(F)F)n3)cc2C)on1` [Compound 6a, 3-(3-Methyl-4-((3-(3-carbethoxy-isoxazol-5-yl)propyl)thio)phenyl)-5-(trifluoromethyl)-1,2,4-oxadia-zole]: the IC50 in series [1] (Enterovirus B) amounted to 21 ± 1.5 µM. In the series “in vitro”, this compound had a CC50 at 24 h of 485 ± 20.1 µM.
Turning to `Cc1cc(CCCSc2ccc(-c3noc(C(F)(F)F)n3)cc2C)on1` [Compound 6b, 3-(3-Methyl-4-((3-(3-methylisoxazol-5-yl)propyl)thio)phenyl)-5-(trifluoromethyl)-1,2,4-oxadiazole], in series [1] (Enterovirus B), the IC50 was determined as 15.6 ± 1.4 µM. The same compound registered a CC50 at 24 h in “in vitro” of over 2610 µM.
As for `Cc1cc(-c2noc(C(F)(F)F)n2)ccc1SCCCc1cc(C(=O)N(C)C)no1` [Compound 7, N,N-dimethyl-5-(3-((2-methyl-4-(5-(trifluoromethyl)-1,2,4-oxadiazol-3-yl)phenyl)thio)propyl)isoxa-zole-3-carboxamide], the IC50 in series [1] (Enterovirus B) came out at 18.6 ± 1.3 µM. The compound also had a CC50 at 24 h in “in vitro” of over 2270 µM.
For `CCOC(=O)c1cc(CCC(=O)Oc2ccc(-c3noc(C(F)(F)F)n3)cc2C)on1` [Compound 12a, Ethyl 5-(3-(2-methyl-4-(5-(trifluoromethyl)-1,2,4-oxadiazol-3-yl)phenoxy)-3-oxopropyl)-isoxazole-3-carboxylate], in that order: 9.1 ± 0.8 µM and 683 ± 30.4 µM.
Consider `Cc1cc(CCC(=O)Oc2ccc(-c3noc(C(F)(F)F)n3)cc2C)on1` [Compound 12b, 2-Methyl-4-(5-(trifluoromethyl)-1,2,4-oxadiazol-3-yl)phenyl 3-(3-methylisoxazol-5-yl)propanoate], for which the IC50 in series [1] (Enterovirus B) is 13.1 ± 0.9 µM. It took 464 ± 30.3 µM to reach half-maximal cytotoxicity in the series “in vitro” (CC50 at 24 h).
In the case of `CCOC(=O)c1cc(CCC(=O)Nc2ccc(-c3noc(C(F)(F)F)n3)cc2C)on1` [Compound 20a, Ethyl 5-(3-((2-methyl-4-(5-(trifluoromethyl)-1,2,4-oxadiazol-3-yl)phenyl)amino)-3-oxopropyl)isoxa-zole-3-carboxylate], the IC50 in series [1] (Enterovirus B) came out at 18.2 ± 1.6 µM. For the same compound, the CC50 at 24 h in the series “in vitro” is 1720 ± 70.5 µM.
Taken in the same sequence, the figures for `Cc1cc(CCC(=O)Nc2ccc(-c3noc(C(F)(F)F)n3)cc2C)on1` [Compound 20b, N-(2-Methyl-4-(5-(trifluoromethyl)-1,2,4-oxadiazol-3-yl)phenyl)-3-(3-methylisoxazol-5-yl)propan-amide] were 76.2 ± 5.3 µM and 1740 ± 120 µM.
Taken in the same sequence, the figures for `Cc1cc(-c2noc(C(F)(F)F)n2)ccc1NC(=O)CCc1cc(C(=O)N(C)C)no1` [Compound 21, N,N-dimethyl-5-(3-((2-methyl-4-(5-(trifluoromethyl)-1,2,4-oxadiazol-3-yl)phenyl)amino)-3-oxopro-pyl)isoxazole-3-carboxamide] were 6.8 µM and 1690 ± 70.7 µM.
For `Cc1cc(-c2noc(C(F)(F)F)n2)ccc1N1CCN(c2cc(C(=O)N(C)C)no2)CC1` [Compound 28a, N,N-Dimethyl-5-(4-(2-methyl-4-(5-(trifluoromethyl)-1,2,4-oxadiazol-3-yl)phenyl)piperazin-1-yl)iso-xazole-3-carboxamide], in that order: 9.1 ± 0.7 µM and 1870 ± 90.4 µM.
For `Cc1cc(CN2CCN(c3ccc(-c4noc(C(F)(F)F)n4)cc3C)CC2)on1` [Compound 28b, 3-(3-Methyl-4-(4-((3-methylisoxazol-5-yl)methyl)piperazin-1-yl)phenyl)-5-(trifluoromethyl)-1,2,4-oxadiazole], the IC50 in series [1] (Enterovirus B) is 41.7 ± 2.1 µM. This compound displayed a CC50 at 24 h in “in vitro” of 2460 ± 171 µM.
For `CCOC(=O)c1cc(N2CCN(c3ccc(-c4noc(C(F)(F)F)n4)cc3C)CC2)on1` [Compound 28c, Ethyl 5-(4-(2-methyl-4-(5-(trifluoromethyl)-1,2,4-oxadiazol-3-yl)phenyl)piperazin-1-yl)isoxazole-3-carboxylate], in series [1] (Enterovirus B), the IC50 turned out to be 48.7 ± 4.4 µM. In addition, in the series “in vitro”, the CC50 at 24 h was about 53.2 µM.
`Cc1cc(-c2noc(C(F)(F)F)n2)ccc1N1CCN(C(=O)c2cc(-c3ccccc3)no2)CC1` [Compound 35a, (4-(2-Methyl-4-(5-(trifluoromethyl)-1,2,4-oxadiazol-3-yl)phenyl)piperazin-1-yl)(3-phenylisoxazol--5-yl)methanone]: in series [2], the “activity against the influenza virus A (in words)” value is “inactive” and the IC50 was over 493 µM. Moreover, the “activity towards CVB3 (in words)” value in series [1] is “inactive”. Further, in series [1] (Enterovirus B), the IC50 was over 620 µM. Moreover, in the series “in vitro”, the CC50 at 24 h amounted to 1520 ± 70.3 µM and it took 1450 ± 102 µM to reach half-maximal cytotoxicity (CC50 at 72 h).
In the case of `Cc1cc(-c2noc(C(F)(F)F)n2)ccc1N1CCN(C(=O)c2c(-c3ccccc3)noc2C)CC1` [Compound 35b, (5-Methyl-3-phenylisoxazol-4-yl)(4-(2-methyl-4-(5-(trifluoromethyl)-1,2,4-oxadiazol-3-yl)phenyl)pi-perazin-1-yl)methanone], in series [2], the “activity against the influenza virus A (in words)” value is “inactive” and the 50% inhibitory concentration (IC50) is over 604 µM. In series [1] (Enterovirus B), the IC50 stood at 16.1 ± 1.1 µM. In “in vitro”, the midpoint of cytotoxicity, the CC50 at 24 h, lay at 2010 ± 121 µM and the CC50 at 72 h is over 604 µM.
Regarding `Cc1cc(CCCOc2c(C)cc(-c3noc(C(F)(F)F)n3)cc2C)on1` [Pleconaril], in series [1] (Enterovirus B), the IC50 stood at 18.4 ± 1.5 µM. Half-maximal cytotoxicity in the series “in vitro” (CC50 at 24 h) was put at 2400 ± 160 µM.
As for “Methyl 5-(4-(2-methyl-4-(5-(trifluoromethyl)-1,2,4-oxadiazol-3-yl)phenyl)piperazin-1-yl)-isoxazole--3-carboxylate [Compound 28d]”, the IC50 in series [1] was 3.9 ± 0.3 µM.
